Reference: US9708314B2, “Heterocyclic amide compound” (NISSAN CHEMICAL INDUSTRIES, LTD., priority 2013, dated 2017)

Legend:
Type in all cases: in vivo
[1] = system: directly sowed Oryza sativa; experiment: Test Example 3: effect on crop by application to foliage (Wagner pot, water depth 0.1-0.5 cm); details: Nineteenth Table; application to foliage; application herbicide amount 320 g/ha
Summary of the method: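 Seeds were sown in alluvial soil in Wagner pots, grown for 14 days at 25–30 °C, then sprayed uniformly on foliage with the emulsified compound diluted to a given rate per hectare. Injury was graded three weeks after treatment from 0 (≤5%) to 5 (≥90%).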

[2] = system: Lolium multiflorum Lam.; experiment: Test Example 4: herbicidal effect by application to foliage (diluvial soil, plastic box)
Summary of the method: (§1)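 Read-out is a 0–5 visual grade of herbicidal ratio (5: ≥90%, almost withered; 0: ≤5%) taken three weeks after treatment. Compound was applied as a diluted emulsion to stem and leaf parts of 14-day greenhouse-grown plants (25° C. to 30° C.) at rates expressed as g/ha.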

[3] = system: Alopecurus myosuroides; experiment: as above
Summary of the method: as §1

[4] = system: Chenopodium album; experiment: as above
Summary of the method: as §1

[5] = system: Echinochloa crus-galli var. crus-galli; experiment: as above
Summary of the method: as §1

[6] = system: Setaria viridis; experiment: as above
Summary of the method: as §1

[7] = system: Amaranthus retroflexus; experiment: as above
Summary of the method: as §1

[8] = system: Abutilon theophrasti; experiment: as above
Summary of the method: as §1

[9] = system: Galium spurium; experiment: as above
Summary of the method: as §1

[10] = system: Veronica persica; experiment: as above
Summary of the method: as §1

[11] = system: Avena fatua; experiment: as above
Summary of the method: as §1

[12] = system: Digitaria ciliaris; experiment: as above
Summary of the method: as §1

[13] = system: Apera spica-venti.; experiment: as above
Summary of the method: as §1

[14] = system: directly sowed Oryza sativa; experiment: Test Example 4: effect on crop by application to foliage (diluvial soil, plastic box)
Summary of the method: as §1

[15] = system: Zea mays; experiment: as above
Summary of the method: as §1

[16] = system: Triticum aestivum; experiment: as above
Summary of the method: as §1

[17] = system: Glycine max; experiment: as above
Summary of the method: as §1

[18] = system: Brassica campestris L.; experiment: as above
Summary of the method: as §1

[19] = system: Beta vulgaris ssp. vulgaris; experiment: as above
Summary of the method: as §1

[20] = system: Stellaria media; experiment: Test Example 4: herbicidal effect by application to foliage (diluvial soil, plastic box); details: application to foliage, 320 g/ha
Summary of the method: as §1

[21] = application to foliage, 320 g/ha
[22] = application to foliage, application herbicide amount 320 g/ha

CC(C)c1nnc2c(C(=O)Nc3nnnn3C)ccc(C(F)(F)C(F)(F)F)n12 [2-049]
b (effect on crop grade) [1]: 1 (Herbicidal ratio of 5% or more and less than 20%) | K (Lolium multiflorum Lam.) herbicidal effect grade ([2]; foliage application, 320 g/ha): 3 (Herbicidal ratio of 40% or more and less than 70%) | J (Alopecurus myosuroides) herbicidal effect grade ([3]; foliage application, 320 g/ha): 1 (Herbicidal ratio of 5% or more and less than 20%) | O (Chenopodium album) herbicidal effect grade ([4]; foliage application, 320 g/ha): 5 (Herbicidal ratio of 90% or more (almost completely withered)) | H (Echinochloa crus-galli var. crus-galli) herbicidal effect grade ([5]; foliage application, 320 g/ha): 5 (Herbicidal ratio of 90% or more (almost completely withered)) | G (Setaria viridis) herbicidal effect grade ([6]; foliage application, 320 g/ha): 5 (Herbicidal ratio of 90% or more (almost completely withered)) | N (Amaranthus retroflexus) herbicidal effect grade ([7]; foliage application, 320 g/ha): 3 (Herbicidal ratio of 40% or more and less than 70%) | M (Abutilon theophrasti) herbicidal effect grade ([8]; foliage application, 320 g/ha): 4 (Herbicidal ratio of 70% or more and less than 90%) | Q (Galium spurium) herbicidal effect grade ([9]; foliage application, 320 g/ha): 3 (Herbicidal ratio of 40% or more and less than 70%) | R (Veronica persica) herbicidal effect grade ([10]; foliage application, 320 g/ha): 4 (Herbicidal ratio of 70% or more and less than 90%) | I (Avena fatua) herbicidal effect grade ([11]; foliage application, 320 g/ha): 3 (Herbicidal ratio of 40% or more and less than 70%) | F (Digitaria ciliaris) herbicidal effect grade ([12]; foliage application, 320 g/ha): 5 (Herbicidal ratio of 90% or more (almost completely withered)) | L (Apera spica-venti.) herbicidal effect grade ([13]; foliage application, 320 g/ha): 4 (Herbicidal ratio of 70% or more and less than 90%) | d (directly sowed Oryza sativa) effect on crop grade ([14]; foliage application, 320 g/ha): 4 (Herbicidal ratio of 70% or more and less than 90%) | b (Zea mays) effect on crop grade ([15]; foliage application, 320 g/ha): 2 (Herbicidal ratio of 20% or more and less than 40%) | e (Triticum aestivum) effect on crop grade ([16]; foliage application, 320 g/ha): 0 (Herbicidal ratio of 5% or less (almost no effect)) | c (Glycine max) effect on crop grade ([17]; foliage application, 320 g/ha): 1 (Herbicidal ratio of 5% or more and less than 20%) | g (Brassica campestris L.) effect on crop grade ([18]; foliage application, 320 g/ha): 3 (Herbicidal ratio of 40% or more and less than 70%) | f (Beta vulgaris ssp. vulgaris) effect on crop grade ([19]; foliage application, 320 g/ha): 4 (Herbicidal ratio of 70% or more and less than 90%)

CCCn1nnnc1NC(=O)c1ccc(C(F)(F)F)n2c(C(C)C)nnc12 [2-090]
herbicidal effect, K (Lolium multiflorum Lam.) [2, 21]: 4 (Herbicidal ratio of 70% or more and less than 90%) | herbicidal effect, J (Alopecurus myosuroides) [3, 21]: 3 (Herbicidal ratio of 40% or more and less than 70%) | herbicidal effect, H (Echinochloa crus-galli var. crus-galli) [5, 21]: 5 (Herbicidal ratio of 90% or more (almost completely withered)) | herbicidal effect, G (Setaria viridis) [6, 21]: 4 (Herbicidal ratio of 70% or more and less than 90%) | herbicidal effect, N (Amaranthus retroflexus) [7, 21]: 4 (Herbicidal ratio of 70% or more and less than 90%) | herbicidal effect, M (Abutilon theophrasti) [8, 21]: 3 (Herbicidal ratio of 40% or more and less than 70%) | herbicidal effect, Q (Galium spurium) [9, 21]: 4 (Herbicidal ratio of 70% or more and less than 90%) | herbicidal effect, R (Veronica persica) [10, 21]: 3 (Herbicidal ratio of 40% or more and less than 70%) | herbicidal effect, I (Avena fatua) [11, 21]: 4 (Herbicidal ratio of 70% or more and less than 90%) | herbicidal effect, F (Digitaria ciliaris) [12, 21]: 5 (Herbicidal ratio of 90% or more (almost completely withered)) | herbicidal effect, L (Apera spica-venti.) [13, 21]: 4 (Herbicidal ratio of 70% or more and less than 90%) | herbicidal effect, P (Stellaria media) [20]: 5 (Herbicidal ratio of 90% or more (almost completely withered)) | effect on crop, d (directly sowed Oryza sativa) [14, 21]: 3 (Herbicidal ratio of 40% or more and less than 70%) | effect on crop, b (Zea mays) [15, 21]: 3 (Herbicidal ratio of 40% or more and less than 70%) | effect on crop, e (Triticum aestivum) [16, 21]: 3 (Herbicidal ratio of 40% or more and less than 70%) | effect on crop, c (Glycine max) [17, 21]: 1 (Herbicidal ratio of 5% or more and less than 20%) | effect on crop, g (Brassica campestris L.) [18, 21]: 4 (Herbicidal ratio of 70% or more and less than 90%) | effect on crop, f (Beta vulgaris ssp. vulgaris) [19, 21]: 5 (Herbicidal ratio of 90% or more (almost completely withered))

O=C(Nc1nnco1)c1ccc(C(F)(F)F)n2c(SC3CCCC3)nnc12 [1-155]
K: herbicidal effect on Lolium multiflorum Lam. [2, 22]: 0 (Herbicidal ratio of 5% or less (almost no effect)) | J: herbicidal effect on Alopecurus myosuroides [3, 22]: 0 (Herbicidal ratio of 5% or less (almost no effect)) | O: herbicidal effect on Chenopodium album [4, 22]: 5 (Herbicidal ratio of 90% or more (almost completely withered)) | H: herbicidal effect on Echinochloa crus-galli var. crus-galli [5, 22]: 3 (Herbicidal ratio of 40% or more and less than 70%) | G: herbicidal effect on Setaria viridis [6, 22]: 1 (Herbicidal ratio of 5% or more and less than 20%) | N: herbicidal effect on Amaranthus retroflexus [7, 22]: 3 (Herbicidal ratio of 40% or more and less than 70%) | M: herbicidal effect on Abutilon theophrasti [8, 22]: 3 (Herbicidal ratio of 40% or more and less than 70%) | Q: herbicidal effect on Galium spurium [9, 22]: 0 (Herbicidal ratio of 5% or less (almost no effect)) | R: herbicidal effect on Veronica persica [10, 22]: 2 (Herbicidal ratio of 20% or more and less than 40%) | I: herbicidal effect on Avena fatua [11, 22]: 0 (Herbicidal ratio of 5% or less (almost no effect)) | F: herbicidal effect on Digitaria ciliaris [12, 22]: 3 (Herbicidal ratio of 40% or more and less than 70%) | L: herbicidal effect on Apera spica-venti. [13, 22]: 0 (Herbicidal ratio of 5% or less (almost no effect)) | b: effect on crop, directly sowed Oryza sativa [14, 22]: 0 (Herbicidal ratio of 5% or less (almost no effect)) | c: effect on crop, Zea mays [15, 22]: 0 (Herbicidal ratio of 5% or less (almost no effect)) | e: effect on crop, Triticum aestivum [16, 22]: 0 (Herbicidal ratio of 5% or less (almost no effect)) | d: effect on crop, Glycine max [17, 22]: 3 (Herbicidal ratio of 40% or more and less than 70%) | g: effect on crop, Brassica campestris L. [18, 22]: 0 (Herbicidal ratio of 5% or less (almost no effect)) | f: effect on crop, Beta vulgaris ssp. vulgaris [19, 22]: 5 (Herbicidal ratio of 90% or more (almost completely withered))
